Key:
in vitro = details: human, Caco-2
physchem = details: buffer, pH 7.4

Structure (SMILES)	Papp A→B (in vitro) [×10⁻⁶ cm/s]	logD (physchem)
C[C@H]1C[C@@H](c2ccncc2NC(=O)c2ccc(F)c(-c3c(F)cccc3F)n2)C[C@@H](O)[C@@H]1O	28.8	3
C[C@@H]1C[C@H](N)C[C@H](c2ccncc2NC(=O)c2ccc(F)c(-c3c(F)cccc3F)n2)C1 [LGH-447]	8.5	1.9
